Experiments:
[1] = Stability of crystalline forms in aqueous suspension; format: physicochemical
Procedure: Recrystallization conducted in a mixture of tetrahydrofuran (THF), acetone, and n-heptane using similar procedures as above afford Form II of the crystalline Compound 1 drug substance was obtained. Both Form I and Form II have very sharp melting endotherm peaks on DSC, and the two forms are about one degree difference in peak melting temperature: 266.4° C. for Form I and 267.5° C. for Form II.

[2] = Relative stability and interconversion of crystalline forms in organic solvents; format: physicochemical

Row | stability in aqueous suspension [1] | relative stability of the crystalline form in MeOH and acetone ([2]; MeOH and acetone) | interconversion of forms ([2]; mixture of methanol, acetone, and n-heptane, depending on solvent ratio, temperature, and time) | relative stability of the crystalline form in IPA ([2]; IPA) | Structure (SMILES)
1 | stable in aqueous suspension | most stable form | could be interconverted to each other |  | CN1C(=O)C(C)(C)Oc2c(-c3cn(C)c(=O)c4[nH]ccc34)cc(S(C)(=O)=O)cc21 [Form I, 2,2,4-trimethyl-8-(6-methyl-7-oxo-6,7-dihydro-1H-pyrrolo[2,3-c]pyridin-4-yl)-6-(methylsulfonyl)-2H-benzo[b][1,4]oxazin-3(4H)-one]
2 |  |  |  | more stable | CN1C(=O)C(C)(C)Oc2c(-c3cn(C)c(=O)c4[nH]ccc34)cc(S(C)(=O)=O)cc21 [Form II, 2,2,4-trimethyl-8-(6-methyl-7-oxo-6,7-dihydro-1H-pyrrolo[2,3-c]pyridin-4-yl)-6-(methylsulfonyl)-2H-benzo[b][1,4]oxazin-3(4H)-one]

Reference: patent US12459943B2, “Crystalline solid forms of a BET inhibitor” (Incyte Corporation, priority 2016, dated 2025)
